Data taken from ChEMBL document CHEMBL5038668 (J Med Chem, 2022).

What was measured:
[1] = molecular target: CYP3A4 (Homo sapiens, UniProt P08684); test: Inhibition of human CYP3A4 at 10 uM incubated for 60 mins by LC/MS/MS analysis relative to control; assay type: ADME
[2] = Lipophilicity, log D of compound at pH 7.4; details: buffer
[3] = molecular target: Cholesterol 24-hydroxylase (Homo sapiens, UniProt Q9Y6A2); test: biochemical
Description: Inhibition of CH24H expressing human 293-F cells for 15 minutes using [14C] cholesterol as substrate and measured after 5 hrs by trypan blue staining based thin-layer chromatography

[4] = molecular target: T1, CYP2C8 (Homo sapiens, UniProt P10632); test: Inhibition of human CYP2C8 at 10 uM incubated for 60 mins by LC/MS/MS analysis relative to control; assay type: ADME
T1 sequence (P10632 whole entry): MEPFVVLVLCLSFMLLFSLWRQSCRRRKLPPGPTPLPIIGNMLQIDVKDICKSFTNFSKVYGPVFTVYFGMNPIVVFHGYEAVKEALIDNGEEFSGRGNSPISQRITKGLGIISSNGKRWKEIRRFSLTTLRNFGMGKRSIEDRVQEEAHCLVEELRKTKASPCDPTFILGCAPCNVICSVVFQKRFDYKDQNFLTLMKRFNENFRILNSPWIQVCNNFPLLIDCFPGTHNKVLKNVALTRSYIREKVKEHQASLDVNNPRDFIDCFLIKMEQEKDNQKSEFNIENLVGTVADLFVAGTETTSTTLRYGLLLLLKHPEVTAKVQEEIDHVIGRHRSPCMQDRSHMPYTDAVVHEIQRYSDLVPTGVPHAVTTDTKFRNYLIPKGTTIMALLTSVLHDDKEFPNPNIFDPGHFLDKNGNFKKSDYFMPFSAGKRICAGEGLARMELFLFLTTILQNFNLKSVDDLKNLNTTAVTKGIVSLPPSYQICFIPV

[5] = molecular target: CYP2C9 (Homo sapiens, UniProt P11712); test: Inhibition of human CYP2C9 at 10 uM incubated for 60 mins by LC/MS/MS analysis relative to control; assay type: ADME
[6] = molecular target: CYP2D6 (Homo sapiens, UniProt P10635); test: Inhibition of human CYP2D6 at 10 uM incubated for 60 mins by LC/MS/MS analysis relative to control; assay type: ADME
[7] = Plasma concentration in C57BL/6N mouse at 30 mg/kg, po and measured at 1 hr by LC/MS/MS analysis; assay type: ADME, organism-based
[8] = Drug concentration in brain of C57BL/6N mouse at 30 mg/kg,po and measured at 1 hrs by LC/MS/MS analysis; assay type: ADME, organism-based; details: read-out: Ct
[9] = test system: Brain; test: In vivo inhibition of […] CH24H in C57BL/6N mouse brain assessed as reduction in 24HC level at 30 mg/kg, po for 3 days by HPLC analysis; assay type: functional; details: 72 h, time 3 day

Chain of CYP3A4 (P08684 whole entry): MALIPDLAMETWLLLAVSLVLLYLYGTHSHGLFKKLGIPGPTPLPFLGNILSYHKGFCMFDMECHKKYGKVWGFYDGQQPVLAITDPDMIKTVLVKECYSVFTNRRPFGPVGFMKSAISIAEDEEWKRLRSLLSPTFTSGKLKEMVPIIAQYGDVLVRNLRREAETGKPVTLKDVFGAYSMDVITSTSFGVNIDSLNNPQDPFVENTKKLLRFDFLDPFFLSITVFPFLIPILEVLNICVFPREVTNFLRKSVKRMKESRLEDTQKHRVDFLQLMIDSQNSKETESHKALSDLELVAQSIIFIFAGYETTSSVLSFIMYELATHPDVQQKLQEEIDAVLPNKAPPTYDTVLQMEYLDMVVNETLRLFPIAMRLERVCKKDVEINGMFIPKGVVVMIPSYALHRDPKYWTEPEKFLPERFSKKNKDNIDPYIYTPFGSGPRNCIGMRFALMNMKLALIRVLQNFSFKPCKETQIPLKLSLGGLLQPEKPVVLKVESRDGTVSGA
Chain of Cholesterol 24-hydroxylase (Q9Y6A2 whole entry): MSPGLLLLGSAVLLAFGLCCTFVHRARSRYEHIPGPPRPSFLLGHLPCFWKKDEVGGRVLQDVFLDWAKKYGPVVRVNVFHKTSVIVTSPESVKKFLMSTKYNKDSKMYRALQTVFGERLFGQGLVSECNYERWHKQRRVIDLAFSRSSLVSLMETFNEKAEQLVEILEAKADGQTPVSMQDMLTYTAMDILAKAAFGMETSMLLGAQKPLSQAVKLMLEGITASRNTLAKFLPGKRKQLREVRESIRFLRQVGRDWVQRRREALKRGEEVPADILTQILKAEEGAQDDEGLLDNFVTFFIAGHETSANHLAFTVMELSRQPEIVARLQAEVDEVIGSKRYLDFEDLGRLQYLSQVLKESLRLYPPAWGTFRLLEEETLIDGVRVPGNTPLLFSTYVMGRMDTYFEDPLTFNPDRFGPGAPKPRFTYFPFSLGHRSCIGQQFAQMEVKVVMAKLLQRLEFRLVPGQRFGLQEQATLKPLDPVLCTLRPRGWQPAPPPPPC
Chain of CYP2C9 (P11712 whole entry): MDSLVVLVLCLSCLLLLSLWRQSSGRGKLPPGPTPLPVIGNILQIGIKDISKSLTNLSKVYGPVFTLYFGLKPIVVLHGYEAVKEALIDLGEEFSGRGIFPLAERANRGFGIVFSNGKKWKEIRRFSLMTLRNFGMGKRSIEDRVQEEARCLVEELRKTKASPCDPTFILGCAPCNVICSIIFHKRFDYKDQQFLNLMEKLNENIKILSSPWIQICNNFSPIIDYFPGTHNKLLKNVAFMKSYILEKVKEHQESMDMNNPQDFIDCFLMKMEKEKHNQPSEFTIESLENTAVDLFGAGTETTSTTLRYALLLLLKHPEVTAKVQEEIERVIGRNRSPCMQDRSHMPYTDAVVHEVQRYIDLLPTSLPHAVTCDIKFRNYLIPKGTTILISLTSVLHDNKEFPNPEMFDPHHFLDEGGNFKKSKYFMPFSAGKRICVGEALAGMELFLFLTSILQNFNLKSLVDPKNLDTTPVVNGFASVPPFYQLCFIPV
Chain of CYP2D6 (P10635 whole entry): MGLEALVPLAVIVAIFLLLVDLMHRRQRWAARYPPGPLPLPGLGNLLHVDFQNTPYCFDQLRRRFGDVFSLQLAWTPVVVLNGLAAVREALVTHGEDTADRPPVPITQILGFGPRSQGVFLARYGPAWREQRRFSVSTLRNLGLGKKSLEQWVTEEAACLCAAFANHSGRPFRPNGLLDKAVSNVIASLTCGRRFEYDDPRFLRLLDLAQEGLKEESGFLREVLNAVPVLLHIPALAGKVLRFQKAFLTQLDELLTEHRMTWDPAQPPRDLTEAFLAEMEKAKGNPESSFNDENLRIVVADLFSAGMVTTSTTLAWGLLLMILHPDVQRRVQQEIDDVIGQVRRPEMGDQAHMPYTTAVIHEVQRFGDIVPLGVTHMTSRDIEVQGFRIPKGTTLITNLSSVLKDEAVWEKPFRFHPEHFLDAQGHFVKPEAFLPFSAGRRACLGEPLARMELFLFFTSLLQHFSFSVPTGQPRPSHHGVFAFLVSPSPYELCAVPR

Q: With CN(C)C(=O)C1CCN(c2cnccc2-n2cc(Br)cn2)CC1 as the compound, how does the inhibition at 1 h, 10 µM [1] read?
A: Its inhibition at 1 h, 10 µM is 31%.

Q: And the logD [2]?
A: Its logD is 2.1.

Q: What about the IC50 [3] of the same compound?
A: Its IC50 is 9.5 nM.

Q: For Cc1cnn(-c2ccncc2N2CCC(C(=O)N(C)C)CC2)c1, which inhibition at 1 h, 10 µM [1] is on record?
A: The inhibition at 1 h, 10 µM was 21%.

Q: And the logD [2]?
A: Its logD is 1.6.

Q: And the inhibition at 1 h, 10 µM [4]?
A: Its inhibition at 1 h, 10 µM is 2%.

Q: What about the inhibition at 1 h, 10 µM [5] of the same compound?
A: The inhibition at 1 h, 10 µM was 19%.

Q: And the inhibition at 1 h, 10 µM [6]?
A: The inhibition at 1 h, 10 µM was 3%.

Q: What about the concentration at 1 h [7] of the same compound?
A: The concentration at 1 h was 179 µM.

Q: And the concentration at 1 h [8]?
A: The concentration at 1 h was 0.102 µM.

Q: What about the inhibition in vivo at 30 mg/kg [9] of the same compound?
A: The inhibition in vivo at 30 mg/kg was 26%.

Q: And the IC50 [3]?
A: The IC50 was 8.5 nM.

Q: What does the source list for CN(C)C(=O)C1CCN(c2cnccc2-n2cc(C3CC3)cn2)CC1?
A: inhibition at 1 h, 10 µM [1]: 56%; logD [2]: 2.1; IC50 [3]: 12 nM

Q: Which IC50 [3] does the source give for O=C(NC1CC1)N1CCN(c2cnccc2-c2ccccc2)CC1 here?
A: The IC50 was 52 nM.

Q: What does the source list for O=C(NC1CC1)C1CCN(c2cncnc2-c2ccccc2)CC1?
A: inhibition at 1 h, 10 µM [1]: 50%; logD [2]: 1.8; IC50 [3]: 44 nM

Q: Which inhibition at 1 h, 10 µM [1] does the source give for CN(C)C(=O)C1CCN(c2cnccc2-n2cc(Cl)cn2)CC1 here?
A: Its inhibition at 1 h, 10 µM is 19%.

Q: What about the IC50 [3] of the same compound?
A: The IC50 was 24 nM.

Q: With O=C(NC1CC1)C1CCN(c2cnccc2-c2ccccc2)CC1 as the compound, how does the inhibition at 1 h, 10 µM [1] read?
A: The inhibition at 1 h, 10 µM was 83%.

Q: And the logD [2]?
A: Its logD is 2.5.

Q: And the IC50 [3]?
A: Its IC50 is 8.1 nM.

Q: Which IC50 [3] does the source give for O=C(NC1CC1)c1ccc(-c2cnccc2-c2ccccc2)cc1 here?
A: Its IC50 is 74 nM.

Q: With O=C(NC1CC1)N1CCC(c2cnccc2-c2ccccc2)CC1 as the compound, how does the IC50 [3] read?
A: Its IC50 is 950 nM.

Q: Which inhibition at 1 h, 10 µM [1] does the source give for CCN(C)C(=O)C1CCN(c2cncnc2-c2ccccc2)CC1 here?
A: The inhibition at 1 h, 10 µM was 35%.

Q: What about the logD [2] of the same compound?
A: Its logD is 2.1.

Q: What about the IC50 [3] of the same compound?
A: Its IC50 is 14 nM.

Q: With Cc1ccn(-c2ccncc2N2CCC(C(=O)N(C)C)CC2)n1 as the compound, how does the inhibition at 1 h, 10 µM [1] read?
A: Its inhibition at 1 h, 10 µM is 5%.

Q: And the logD [2]?
A: Its logD is 1.5.

Q: What about the IC50 [3] of the same compound?
A: Its IC50 is 1100 nM.

Q: With CN(C)C(=O)C1CCN(c2cnccc2-c2ccccn2)CC1 as the compound, how does the inhibition at 1 h, 10 µM [1] read?
A: The inhibition at 1 h, 10 µM was 11%.

Q: And the logD [2]?
A: The logD was 1.2.

Q: And the IC50 [3]?
A: The IC50 was 68 nM.

Q: For CN(C)C(=O)C1CCN(c2cnccc2-n2cc(C(F)(F)F)cn2)CC1, which inhibition at 1 h, 10 µM [1] is on record?
A: The inhibition at 1 h, 10 µM was 47%.

Q: What about the logD [2] of the same compound?
A: Its logD is 2.1.

Q: And the IC50 [3]?
A: Its IC50 is 65 nM.

Q: For CN(C)C(=O)C1CCN(c2cncnc2-c2ccccc2)CC1, which inhibition at 1 h, 10 µM [1] is on record?
A: The inhibition at 1 h, 10 µM was 28%.

Q: And the logD [2]?
A: The logD was 1.7.

Q: What about the IC50 [3] of the same compound?
A: The IC50 was 16 nM.

Q: Which inhibition at 1 h, 10 µM [1] does the source give for CN(C)C(=O)C1CCN(c2cnccc2-n2cccn2)CC1 here?
A: Its inhibition at 1 h, 10 µM is 1%.

Q: What about the logD [2] of the same compound?
A: Its logD is 1.1.

Q: And the IC50 [3]?
A: The IC50 was 48 nM.

Q: With Cc1cnc(-c2ccncc2N2CCC(C(=O)N(C)C)CC2)s1 as the compound, how does the inhibition at 1 h, 10 µM [1] read?
A: The inhibition at 1 h, 10 µM was 32%.

Q: What about the logD [2] of the same compound?
A: The logD was 2.

Q: What about the IC50 [3] of the same compound?
A: Its IC50 is 12 nM.

Q: With CNC(=O)C1CCN(c2cncnc2-c2ccccc2)CC1 as the compound, how does the inhibition at 1 h, 10 µM [1] read?
A: Its inhibition at 1 h, 10 µM is 31%.

Q: What about the logD [2] of the same compound?
A: Its logD is 1.4.

Q: What about the IC50 [3] of the same compound?
A: Its IC50 is 72 nM.

Q: Which inhibition at 1 h, 10 µM [1] does the source give for O=C(NC1CC1)C1CCN(c2cnccc2-c2ccccn2)CC1 here?
A: Its inhibition at 1 h, 10 µM is 29%.

Q: What about the logD [2] of the same compound?
A: Its logD is 1.3.

Q: What about the IC50 [3] of the same compound?
A: The IC50 was 160 nM.

Q: What does the source list for O=C(Nc1ccccc1)C1CCN(c2cncnc2-c2ccccc2)CC1?
A: inhibition at 1 h, 10 µM [1]: 84%; logD [2]: 2.7; IC50 [3]: 28 nM

Q: Which results are given for CN(C)C(=O)C1CCN(c2cncnc2-c2ccc(F)cc2)CC1?
A: inhibition at 1 h, 10 µM [1]: 37%; logD [2]: 1.9; IC50 [3]: 7.3 nM

Q: What does the source list for CCNC(=O)C1CCN(c2cncnc2-c2ccccc2)CC1?
A: inhibition at 1 h, 10 µM [1]: 42%; logD [2]: 1.8; IC50 [3]: 58 nM

Q: For S=C(NC1CCCCC1)N1CCC(c2cnc[nH]2)CC1 [THIOPERAMIDE], which IC50 [3] is on record?
A: Its IC50 is 430 nM.
